Assay results as given in PMC6751662, “Pharmacological and functional similarities of the human neuropeptide Y system in C. elegans challenges phylogenetic views on the FLP/NPR system” (Cell Communication and Signaling : CCS, 2019).

Tests used:
NPR-1 [1] = biological target: T1, NPR-1 (Caenorhabditis elegans, UniProt Q18534); assay: IP accumulation assay, chimeric GαΔ6qi4myr, NPR-1; type: cell-based, C. elegans; set-up: expressed in transfected cells; host or cells: HEK293; conditions: 1 h, HBSS + 20 mM LiCl, HEK293 receptor + GαΔ6qi4myr, HTRF IP-One
T1 sequence (Q18534 1-457): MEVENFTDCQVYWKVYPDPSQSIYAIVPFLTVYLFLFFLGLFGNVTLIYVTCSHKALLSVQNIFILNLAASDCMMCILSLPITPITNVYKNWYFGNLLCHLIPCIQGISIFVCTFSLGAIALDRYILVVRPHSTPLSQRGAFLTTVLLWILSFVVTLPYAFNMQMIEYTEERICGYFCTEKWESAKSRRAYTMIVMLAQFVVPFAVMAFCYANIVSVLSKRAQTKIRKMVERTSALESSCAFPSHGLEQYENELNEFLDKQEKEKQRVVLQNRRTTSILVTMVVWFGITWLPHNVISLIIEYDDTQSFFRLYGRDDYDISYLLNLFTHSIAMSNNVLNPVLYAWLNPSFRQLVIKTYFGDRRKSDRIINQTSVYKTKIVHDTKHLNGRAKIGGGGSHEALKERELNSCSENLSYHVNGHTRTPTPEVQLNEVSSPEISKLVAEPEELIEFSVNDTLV
Method: (§1) For measuring IP accumulation, HEK293 cells grown to 70–80% confluency in 6-well plates were transiently co-transfected using Metafectene Pro (2.5 μl/μg DNA; Biontex) with plasmids containing receptor and/or mock (empty pcDNA3.1) (for endogenous Gq-coupling) using 4 μg total DNA in a ratio of 3:1 following the manufacturer’s instructions. For testing Gα16- and GαΔ6qi4myr-coupling, plasmids encoding the corresponding Gα protein were co-transfected instead of mock. Gα16 is naturally promiscuous and stimulates the phospholipase C (PLC) pathway leading to IP production, while the exchange of the C-terminal four amino acids of Gαq for the corresponding residues of Gαi1 in the chimeric GαΔ6qi4myr confers the ability to couple to Gi/o protein-preferring receptors but still stimulate PLC, thus specifically redirecting downstream cellular signaling. 16 h post transfection, the cells were seeded into white 384-well plates at a density of 20,000 cells/well. Media was removed 24 h later and the cells were incubated with the indicated concentration of peptides for 1 h in HBSS + 20 mM LiCl. IP accumulation was measured with the HTRF-based IP-One Gq kit (Cisbio) on a microplate reader (Tecan Spark).
(§2) For in vitro activation, data is presented as mean ± SEM of at least three independent experiments conducted in technical triplicate. […] For the C. elegans NPRs, we considered the strongest response elicited by any of the peptides downstream of a particular receptor as the receptor’s maximal signal. This may or may not be the biological maximum that can be reached by the ‘true’ endogenous agonist. For the human receptors, the response to the established endogenous agonist reflected the maximal signal.

[2] = system: mock (empty vector) transfected HEK293 cells; assay: IP accumulation assay, negative control: empty vector (mock) instead of the receptor; type: cell-based, Homo sapiens; conditions: 1 h, HBSS + 20 mM LiCl, HEK293 with empty vector instead of receptor (negative control), HTRF IP-One, mean of >=3 independent experiments
Method: as §1, §2

NPR-11 = biological target: T2, NPR-11 (Caenorhabditis elegans, UniProt Q18179); assay: IP accumulation assay, chimeric GαΔ6qi4myr, NPR-11; type: cell-based, C. elegans; conditions: 1 h, HBSS + 20 mM LiCl, HEK293 receptor + GαΔ6qi4myr, HTRF IP-One
T2 construct: expressed in transfected cells; host or cells: HEK293, transient
T2 sequence (Q18179 1-402): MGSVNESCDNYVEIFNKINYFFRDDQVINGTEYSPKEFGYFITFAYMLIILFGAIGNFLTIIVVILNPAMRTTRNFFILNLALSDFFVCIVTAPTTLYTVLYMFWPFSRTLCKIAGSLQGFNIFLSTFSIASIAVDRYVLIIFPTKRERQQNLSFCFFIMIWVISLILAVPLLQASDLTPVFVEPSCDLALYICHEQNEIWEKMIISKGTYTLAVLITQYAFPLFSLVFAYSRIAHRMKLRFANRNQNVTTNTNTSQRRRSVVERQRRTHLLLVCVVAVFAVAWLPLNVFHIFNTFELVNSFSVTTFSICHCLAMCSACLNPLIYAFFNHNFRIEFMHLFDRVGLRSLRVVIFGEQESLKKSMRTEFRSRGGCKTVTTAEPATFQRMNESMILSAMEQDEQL
Method: as §1, §2

NPR-5b [3] = biological target: T3, NPR-5b (Caenorhabditis elegans, UniProt Q6F3C9); assay: IP accumulation assay (Table S8), NPR-5b; type: cell-based, C. elegans; conditions: 1 h, HBSS + 20 mM LiCl, transfected HEK293, Table S8 (title: chimeric GαΔ6qi4myr), HTRF IP-One, mean of >=3 independent experiments
T3 sequence (Q6F3C9 1-433): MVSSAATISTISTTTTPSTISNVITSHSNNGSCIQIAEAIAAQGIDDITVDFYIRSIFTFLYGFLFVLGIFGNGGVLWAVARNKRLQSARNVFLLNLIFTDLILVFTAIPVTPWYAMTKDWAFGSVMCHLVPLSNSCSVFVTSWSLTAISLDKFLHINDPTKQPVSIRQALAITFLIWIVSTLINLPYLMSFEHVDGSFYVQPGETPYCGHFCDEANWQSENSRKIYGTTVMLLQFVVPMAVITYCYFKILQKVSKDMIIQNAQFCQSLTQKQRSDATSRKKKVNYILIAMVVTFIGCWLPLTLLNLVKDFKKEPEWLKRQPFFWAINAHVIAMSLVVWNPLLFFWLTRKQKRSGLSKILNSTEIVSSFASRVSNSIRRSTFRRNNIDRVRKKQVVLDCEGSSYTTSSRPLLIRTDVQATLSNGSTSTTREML
Method: as §1, §2

NPR-5b [4] = biological target: T3, NPR-5b; assay: IP accumulation assay, endogenous Gαq + mock, NPR-5b; type: cell-based, C. elegans; conditions: 1 h, HBSS + 20 mM LiCl, HEK293 receptor + empty vector, HTRF IP-One, mean of >=3 independent experiments
Method: as §1
(§3) For in vitro activation, data is presented as mean ± SEM of at least three independent experiments conducted in technical triplicate. […]

NPR-6 = assay: IP accumulation assay, co-transfected Gα16, NPR-6; type: cell-based, C. elegans; conditions: 1 h, HBSS + 20 mM LiCl, HEK293 receptor + Gα16, HTRF IP-One, mean of >=3 independent experiments
Method: as §1, §3

NPR-1 [5] = biological target: T1, NPR-1; assay: IP accumulation assay, co-transfected Gα16, NPR-1; type: cell-based, C. elegans; set-up: expressed in transfected cells; host or cells: HEK293; conditions: 1 h, HBSS + 20 mM LiCl, HEK293 receptor + Gα16, HTRF IP-One, mean of >=3 independent experiments
Method: as §1, §3

[6] = 0.1 µM peptide (Table S8), mean of >=3 independent experiments
[7] = 10 µM peptide, mean of >=3 independent experiments (Tables S5 and S8)
[8] = 0.1 nM peptide (so in the source)
[9] = 0.1 nM peptide (Table S5), mean of >=3 independent experiments

**Q.** With “ASPSFIRF-NH2 [FLP-4-2, C. elegans FMRFamide-like peptide, C-terminally amidated, synthesized by SPPS]” as the substance, how does the “IP accumulation with GαΔ6qi4myr, NPR-1” value (NPR-1 [1]; [6]) read?
**A.** 0.83 x-fold of basal

**Q.** And the “IP accumulation with GαΔ6qi4myr, NPR-1” value (NPR-1 [1]; [7])?
**A.** 0.89 x-fold of basal

**Q.** What about the “IP accumulation, mock” value ([2]; 0.1 µM peptide) of the same substance?
**A.** 0.75 x-fold of basal

**Q.** What about the “IP accumulation, mock” value ([2]; 10 µM peptide) of the same substance?
**A.** 0.75 x-fold of basal

**Q.** And the “IP accumulation with GαΔ6qi4myr, NPR-11” value (NPR-11; [6])?
**A.** 1.03 x-fold of basal

**Q.** And the “IP accumulation with GαΔ6qi4myr, NPR-11” value (NPR-11; [7])?
**A.** 2.79 x-fold of basal

**Q.** And the “IP accumulation, NPR-5b” value (NPR-5b [3]; 0.1 µM peptide)?
**A.** 0.90 x-fold of basal

**Q.** What about the “IP accumulation, NPR-5b” value (NPR-5b [3]; 10 µM peptide) of the same substance?
**A.** 1.98 x-fold of basal

**Q.** How did the “IP assay endog. Gαq + mock, NPR-5b” value (NPR-5b [4]; [8]) turn out when “APKPKFIRF-NH2 [FLP-5-1, C. elegans FMRFamide-like peptide, C-terminally amidated, synthesized by SPPS]” was run?
**A.** 0.93 x-fold of basal

**Q.** What about the “IP assay endog. Gαq + mock, NPR-5b” value (NPR-5b [4]; 10 µM peptide) of the same substance?
**A.** 1.11 x-fold of basal

**Q.** And the “IP assay endog. Gαq + GαΔ6qi4myr, NPR-1” value (NPR-1 [1]; [9])?
**A.** 0.88 x-fold of basal

**Q.** What about the “IP accumulation with GαΔ6qi4myr, NPR-1” value (NPR-1 [1]; [6]) of the same substance?
**A.** 0.88 x-fold of basal

**Q.** And the “IP accumulation with GαΔ6qi4myr, NPR-1” value (NPR-1 [1]; [7])?
**A.** 0.93 x-fold of basal

**Q.** What about the “IP accumulation, mock” value ([2]; 0.1 µM peptide) of the same substance?
**A.** 1.08 x-fold of basal

**Q.** What about the “IP accumulation, mock” value ([2]; 10 µM peptide) of the same substance?
**A.** 1.01 x-fold of basal

**Q.** What about the “IP assay endog. Gαq + Gα16, NPR-6” value (NPR-6; [8]) of the same substance?
**A.** 1.01 x-fold of basal

**Q.** What about the “IP assay endog. Gαq + Gα16, NPR-6” value (NPR-6; 10 µM peptide) of the same substance?
**A.** 0.96 x-fold of basal

**Q.** What about the “IP assay endog. Gαq + GαΔ6qi4myr, NPR-11” value (NPR-11; [9]) of the same substance?
**A.** 1.03 x-fold of basal

**Q.** What about the “IP accumulation with GαΔ6qi4myr, NPR-11” value (NPR-11; [6]) of the same substance?
**A.** 1.03 x-fold of basal

**Q.** What about the “IP accumulation with GαΔ6qi4myr, NPR-11” value (NPR-11; [7]) of the same substance?
**A.** 6.49 x-fold of basal

**Q.** What about the “IP assay endog. Gαq + Gα16, NPR-1” value (NPR-1 [5]; [8]) of the same substance?
**A.** 0.90 x-fold of basal

**Q.** And the “IP assay endog. Gαq + Gα16, NPR-1” value (NPR-1 [5]; 10 µM peptide)?
**A.** 0.81 x-fold of basal

**Q.** And the “IP accumulation, NPR-5b” value (NPR-5b [3]; 0.1 µM peptide)?
**A.** 0.91 x-fold of basal

**Q.** What about the “IP accumulation, NPR-5b” value (NPR-5b [3]; 10 µM peptide) of the same substance?
**A.** 1.45 x-fold of basal

**Q.** Which “IP accumulation with GαΔ6qi4myr, NPR-1” value (NPR-1 [1]; [6]) does the source give for “AGSDPNFLRF-NH2 [FLP-1-2, C. elegans FMRFamide-like peptide, C-terminally amidated, synthesized by SPPS]” here?
**A.** 1.03 x-fold of basal

**Q.** What about the “IP accumulation with GαΔ6qi4myr, NPR-1” value (NPR-1 [1]; [7]) of the same substance?
**A.** 0.98 x-fold of basal

**Q.** And the “IP accumulation, mock” value ([2]; 0.1 µM peptide)?
**A.** 4.14 x-fold of basal

**Q.** What about the “IP accumulation, mock” value ([2]; 10 µM peptide) of the same substance?
**A.** 1.78 x-fold of basal

**Q.** And the “IP accumulation with GαΔ6qi4myr, NPR-11” value (NPR-11; [6])?
**A.** 0.92 x-fold of basal

**Q.** And the “IP accumulation with GαΔ6qi4myr, NPR-11” value (NPR-11; [7])?
**A.** 6.48 x-fold of basal

**Q.** And the “IP accumulation, NPR-5b” value (NPR-5b [3]; 0.1 µM peptide)?
**A.** 0.99 x-fold of basal

**Q.** What about the “IP accumulation, NPR-5b” value (NPR-5b [3]; 10 µM peptide) of the same substance?
**A.** 1.80 x-fold of basal

**Q.** What does the source list for “NPENDTPFGTMRF-NH2 [FLP-3-4, C. elegans FMRFamide-like peptide, C-terminally amidated, synthesized by SPPS]”?
**A.** IP accumulation with GαΔ6qi4myr, NPR-1 (NPR-1 [1]; [6]): 0.98 x-fold of basal; IP accumulation with GαΔ6qi4myr, NPR-1 (NPR-1 [1]; [7]): 0.94 x-fold of basal; IP accumulation, mock ([2]; 0.1 µM peptide): 1.08 x-fold of basal; IP accumulation, mock ([2]; 10 µM peptide): 1.16 x-fold of basal; IP accumulation with GαΔ6qi4myr, NPR-11 (NPR-11; [6]): 0.92 x-fold of basal; IP accumulation with GαΔ6qi4myr, NPR-11 (NPR-11; [7]): 1.17 x-fold of basal; IP accumulation, NPR-5b (NPR-5b [3]; 0.1 µM peptide): 1.19 x-fold of basal; IP accumulation, NPR-5b (NPR-5b [3]; 10 µM peptide): 8.18 x-fold of basal
